{"source": "patent US5919783A", "about": "“Indoline and azaindoline derivatives as 5-HT1D alpha receptor agonists” (Merck Sharp & Dohme Ltd., priority 1994, dated 1999)", "origin": "cited, not measured here", "key": {"[1]": {"system": "human 5-HT1Dα and 5-HT1Dβ receptor subtypes", "conditions": "cf. WO-A-91/17174, Table 1"}, "[2]": {"conditions": "therapeutic doses"}}, "data": [{"molecule": "CNS(=O)(=O)Cc1ccc2[nH]cc(CCN(C)C)c2c1", "note": "[sumatriptan]", "values": [{"measurement": "discrimination between human 5-HT1Dα and 5-HT1Dβ receptor subtypes (in words)", "setting": "[1]", "result": "barely discriminates"}, {"measurement": "adverse events in humans", "setting": "[2]", "result": "adverse cardiovascular events"}]}]}
